What is called inhibition is the share of the control response that was lost under treatment. As a reminder, the IC50 is the concentration needed to halve the response being measured.

Bounds are passed on as bounds.

For assay [1], the target named is T1, Interstitial collagenase (Homo sapiens) (UniProt P03956).
T1 sequence (whole entry): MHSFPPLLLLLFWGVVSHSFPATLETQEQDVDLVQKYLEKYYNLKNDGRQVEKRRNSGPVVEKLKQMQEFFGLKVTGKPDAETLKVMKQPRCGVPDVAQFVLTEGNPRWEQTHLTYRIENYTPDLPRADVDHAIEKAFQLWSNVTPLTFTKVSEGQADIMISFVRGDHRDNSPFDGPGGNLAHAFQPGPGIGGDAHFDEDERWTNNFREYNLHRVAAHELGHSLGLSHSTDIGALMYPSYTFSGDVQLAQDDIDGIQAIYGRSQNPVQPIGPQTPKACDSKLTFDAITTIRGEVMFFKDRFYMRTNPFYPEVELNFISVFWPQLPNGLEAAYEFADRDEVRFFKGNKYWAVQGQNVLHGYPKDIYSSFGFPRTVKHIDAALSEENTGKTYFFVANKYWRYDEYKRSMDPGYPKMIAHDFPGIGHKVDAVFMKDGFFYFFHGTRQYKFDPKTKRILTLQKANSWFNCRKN
As to the kind of experiment: Inhibition of human recombinant interstitial collagenase MMP-1 at 10 uM.

Assay [2] concerns the target Matrix metalloproteinase-9 (Homo sapiens) (UniProt P14780). As to the kind of experiment: Inhibition of human recombinant 92 kDa gelatinase MMP-9 at 10 uM.
The target of assay [3] is T2, Stromelysin-1 (Homo sapiens, UniProt P08254). As to the kind of experiment: Inhibition of human recombinant matrix metalloprotease-3 (Stromelysin) at 100 uM.
Target sequence in this assay (P08254 whole entry): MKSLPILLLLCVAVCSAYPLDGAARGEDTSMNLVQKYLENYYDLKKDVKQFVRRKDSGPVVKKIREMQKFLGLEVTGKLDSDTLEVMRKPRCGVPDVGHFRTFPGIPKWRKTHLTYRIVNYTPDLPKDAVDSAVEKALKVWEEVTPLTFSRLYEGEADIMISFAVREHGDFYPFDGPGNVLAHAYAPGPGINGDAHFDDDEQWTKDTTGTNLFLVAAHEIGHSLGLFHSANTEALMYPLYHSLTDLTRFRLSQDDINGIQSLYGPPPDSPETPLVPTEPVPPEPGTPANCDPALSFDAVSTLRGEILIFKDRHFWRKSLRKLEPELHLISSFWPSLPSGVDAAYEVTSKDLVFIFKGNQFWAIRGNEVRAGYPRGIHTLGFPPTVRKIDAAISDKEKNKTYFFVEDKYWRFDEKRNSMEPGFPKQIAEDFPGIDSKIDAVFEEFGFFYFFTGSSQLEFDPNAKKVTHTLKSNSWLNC
Assay [4] deals with T2, Stromelysin-1. Briefly: (§1) Inhibition of human recombinant matrix metalloprotease-3 (Stromelysin) at 10 uM.
Target sequence in this assay (P08254 100-477 limits assumed): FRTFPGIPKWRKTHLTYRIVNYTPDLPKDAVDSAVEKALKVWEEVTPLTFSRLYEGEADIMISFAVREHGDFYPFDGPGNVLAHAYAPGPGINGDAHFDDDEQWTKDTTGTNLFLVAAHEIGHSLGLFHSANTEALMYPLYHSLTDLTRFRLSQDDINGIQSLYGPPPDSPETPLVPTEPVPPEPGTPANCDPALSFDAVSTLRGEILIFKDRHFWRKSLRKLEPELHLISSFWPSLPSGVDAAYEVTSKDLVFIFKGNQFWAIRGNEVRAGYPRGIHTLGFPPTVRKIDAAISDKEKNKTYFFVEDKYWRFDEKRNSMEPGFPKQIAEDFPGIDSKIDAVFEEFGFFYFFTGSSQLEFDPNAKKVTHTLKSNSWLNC
Assay [5] addresses T2, Stromelysin-1. The assay is described as §1. The source holds these as a separate data set.
Target sequence in this assay (P08254 whole entry): as the sequence (P08254 whole entry) above

Matrix metalloproteinase-9 (Homo sapiens), sequence (P14780 whole entry): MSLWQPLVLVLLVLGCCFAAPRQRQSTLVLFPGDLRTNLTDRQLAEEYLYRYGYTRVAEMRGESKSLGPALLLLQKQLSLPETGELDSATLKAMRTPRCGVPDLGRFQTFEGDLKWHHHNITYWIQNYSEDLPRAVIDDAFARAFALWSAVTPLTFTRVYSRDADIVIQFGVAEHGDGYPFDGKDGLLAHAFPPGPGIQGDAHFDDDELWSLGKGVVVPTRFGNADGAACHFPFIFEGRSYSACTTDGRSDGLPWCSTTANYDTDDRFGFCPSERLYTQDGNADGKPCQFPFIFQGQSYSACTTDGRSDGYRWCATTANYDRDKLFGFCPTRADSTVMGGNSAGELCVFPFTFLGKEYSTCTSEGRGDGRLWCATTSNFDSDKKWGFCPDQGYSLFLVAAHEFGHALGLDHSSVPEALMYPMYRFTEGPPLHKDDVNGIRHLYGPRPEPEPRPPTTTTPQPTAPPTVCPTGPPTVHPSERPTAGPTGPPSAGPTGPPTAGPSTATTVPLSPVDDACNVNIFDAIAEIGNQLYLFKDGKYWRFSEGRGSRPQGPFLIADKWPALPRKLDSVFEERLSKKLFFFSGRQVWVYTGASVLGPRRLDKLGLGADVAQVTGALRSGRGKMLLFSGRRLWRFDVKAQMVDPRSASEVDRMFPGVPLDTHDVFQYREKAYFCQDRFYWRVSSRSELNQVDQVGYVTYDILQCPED

As for `CNC(=O)[C@H](Cc1c[nH]c2ccccc12)NC(=O)[C@@H](CC(=O)NO)CC(C)C` [ILOMASTAT], the inhibition (in assay [1]; in assay [2]; on Stromelysin-1 [4]) was 100% each time. Besides, the IC50 at Stromelysin-1 [3] stood at 28 nM.
For `C=CCc1c(O)c(OC)cc2c1O[C@@H](C[C@H](c1ccc3c(c1)OCO3)C(C)O)C2` (stereo not given in full), the inhibition in assay [1] is 0%; in assay [2] it was 0%; at Stromelysin-1 [4] it was 36%.
For `COC1=C[C@]23C[C@H](C[C@H](c4cc5c(cc4Br)OCO5)[C@H]2C)OC3=C(Br)C1=O`, the inhibition is 0% in assay [1], 0% in assay [2] and 38% on Stromelysin-1 [4].
Turning to `COc1cc2c(cc1SC(C)=O)O[C@@H](C[C@H](c1ccc3c(c1)OCO3)C(C)OC(C)=O)C2` (stereo not given in full), the inhibition in assay [1] came out at 23%; in assay [2], 8%; at Stromelysin-1 [4], 58%.
For `COc1cc2c(cc1O)O[C@@H](C[C@H](c1ccc3c(c1)OCO3)C(C)O)C2` (stereo not given in full), in that order: 0%, 0% and 34%.
In the case of `COc1cc2c(cc1S)O[C@@H](C[C@H](c1ccc3c(c1)OCO3)C(C)O)C2` (stereo not given in full), the inhibition in assay [1] stood at 75%; in assay [2] it was 44%; at Stromelysin-1 [4] it was 98%. The IC50 on Stromelysin-1 [5] was 600 nM.
Turning to `COC1=C[C@]23C[C@H](C[C@H](c4ccc5c(c4)OCO5)[C@H]2C)OC3=C(Br)C1=O`, the inhibition was determined as 0% in assay [1], 22% in assay [2] and 38% on Stromelysin-1 [4].
For `COC1=C[C@]23C[C@H](C[C@H](c4ccc5c(c4)OCO5)[C@H]2C)OC3=CC1=S`, in that order: 0%, 0% and 42%.
On to `COC1=C[C@]23C[C@H](C[C@H](c4ccc5c(c4)OCO5)[C@H]2C)OC3=CC1=O` [FUTOENONE], for which the inhibition was found to be 16% in assay [1], 0% in assay [2] and 35% on Stromelysin-1 [4]. Further, the IC50 on Stromelysin-1 [5] was below 1000 nM.
